IC50 and EC50 data for 24 compounds are collected here from patent publication US9611252B2 (LifeSci Pharmaceuticals, Inc., priority 2013, dated 2017).

A value given as a limit tells only on which side of the number the result lay.

One assay has as its target human Plasma Kallikrein (Homo sapiens (Human), UniProt P03952). Kind of assay: In vitro enzyme inhibition of human plasma kallikrein (PFR-AMC cleavage). The format is biochemical. The conditions noted are these: human plasma kallikrein, Pro-Phe-Arg-AMC substrate, 37° C.; read-out: hPK IC50. The method in brief:
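Compound pre-incubated with human plasma kallikrein 5 min at 37° C in 50 mM Tris-HCl pH 7.5, 150 mM NaCl, 0.01% Triton X-100. Reaction started with PFR-AMC, cleavage read kinetically at 37° C every 43 s for 1 h.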

The next assay concerns the target kallikrein (Homo sapiens (Human), UniProt P03952). Kind of assay: In vitro cellular assay (contact assay): kallikrein activity in ellagic acid-activated human plasma, substrate Z-FR-2-AMC. Format: biochemical. The conditions noted are these: human plasma activated with ellagic acid, Z-FR-2-AMC substrate, 37° C.; read-out: Contact Assay EC50. As for the experimental part: The ability of the compounds disclosed herein to inhibit cellular kallikrein activity was quantified and the respective EC50 value was determined.
All dilutions were prepared in an assay buffer comprising 50 mM Tris-HCl pH 7.2, 150 mM NaCl, and 0.01% Triton X-100.
The ten solutions of the test compounds, prepared by serial dilution, were further diluted 50-fold in the assay buffer.
Human plasma is thawed on ice and centrifuged for 15 min at 4° C. to remove platelets. A 1 mM stock solution of ellagic acid is diluted to 8 μM and mixed with human plasma, after removing platelets, at a ratio of 1:0.8.
A 22.5 μL volume of the final mixture of human plasma and ellagic acid was added to a 96-well microwell plate and the plate was incubated for 15 min at 37° C.
The CINH inhibitor at various concentrations, prepared by serial dilutions as described above, were added to the inhibitor control wells. […] Each CINH concentration is tested in duplicates.
The test compounds at various concentrations, also prepared by serial dilutions as described above, are added to the test wells. […] Each test compound concentration was tested in duplicates.
In addition to the inhibitor control and test wells, the 96 well assay plate includes positive control wells which contained the mixture of human plasma and ellagic acid without C1NH inhibitor or test compounds, and background wells which contained neither the mixture of human plasma and ellagic acid nor the test compounds. The total volume of liquid in positive control and background wells was brought up to 35 μL, using the assay buffer.
The assay plate containing C1NH inhibitors and test compounds mixed with human plasma and ellagic acid and appropriate controls was incubated at 37° C. for 5 min. […] The reagents were mixed well by shaking the plate gently for 30 sec.
The enzyme reaction was quantified by immediate kinetic reading of the assay plate using excitation/emission wavelengths of 330 nm/440 nm respectively. Fluorescence intensity was recorded for 60 min, using a time interval of 43 sec.
The inhibition activity of the test compounds were evaluated using the IC50 values, calculated according to the dose-response curve of the test compounds, fitted using the “log(inhibitor)-response (variable slope)” equation in GraphPadPrism software (GraphPad Software, Inc.).
The percentage inhibition was calculated using the following equation:
[formula] where, Mean(BG) is the average value of the fluorescence intensity of the background wells and Mean(PC) is the average value of the fluorescence intensity of the positive control wells.
Table 4 provides the EC50 values of various compounds disclosed herein.

Sequence of kallikrein (P03952 20-638): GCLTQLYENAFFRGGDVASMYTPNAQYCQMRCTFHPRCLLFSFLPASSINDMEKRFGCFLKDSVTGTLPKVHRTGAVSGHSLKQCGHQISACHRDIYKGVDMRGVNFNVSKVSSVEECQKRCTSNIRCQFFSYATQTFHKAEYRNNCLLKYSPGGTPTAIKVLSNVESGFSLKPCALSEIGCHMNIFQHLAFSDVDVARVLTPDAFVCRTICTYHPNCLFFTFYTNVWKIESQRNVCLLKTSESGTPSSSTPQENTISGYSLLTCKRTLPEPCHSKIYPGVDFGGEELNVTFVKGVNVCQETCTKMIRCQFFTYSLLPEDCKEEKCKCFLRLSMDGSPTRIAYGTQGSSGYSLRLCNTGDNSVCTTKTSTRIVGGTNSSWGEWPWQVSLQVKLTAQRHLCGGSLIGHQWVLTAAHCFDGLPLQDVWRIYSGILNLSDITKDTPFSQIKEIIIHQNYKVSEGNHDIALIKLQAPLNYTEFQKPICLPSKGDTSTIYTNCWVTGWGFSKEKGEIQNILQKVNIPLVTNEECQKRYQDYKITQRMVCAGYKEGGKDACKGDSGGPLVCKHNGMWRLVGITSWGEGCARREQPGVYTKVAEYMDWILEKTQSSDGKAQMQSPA
Sequence of human Plasma Kallikrein (P03952 20-638): as above

In the case of `Cc1cnc2ccc(Cc3cc(C(=O)NCc4ccc5c(N)nccc5c4)ccn3)cc2c1` [Example 142, N-((1-aminoisoquinolin-6-yl)methyl)-2-((3-methylquinolin-6-yl)methyl)isonicotinamide], the IC50 on human Plasma Kallikrein is under 100 nM. For the same compound, at kallikrein, the EC50 was under 100 nM.

Consider `Cc1cc(N)nc(C)c1CNC(=O)c1ccnc(Cc2cc(S(C)(=O)=O)c3ncc(Cl)cc3c2)c1` [Example 67, N-((6-amino-2,4-dimethylpyridin-3-yl)methyl)-2-((3-chloro-8-(methylsulfonyl)quinolin-6-yl)methyl)isonicotinamide], for which, on human Plasma Kallikrein, the IC50 was under 100 nM. Also, the EC50 at kallikrein is under 100 nM.

Regarding `O=C(NCc1cc2c(Cl)c[nH]c2cc1F)c1ccnc(Cc2ccc3ncc(Cl)cc3c2)c1` [Example 33, N-((3-chloro-6-fluoro-1H-indol-5-yl)methyl)-2-((3-chloroquinolin-6-yl)methyl)isonicotinamide], the IC50 on human Plasma Kallikrein is under 100 nM. Further, at kallikrein, the EC50 lay within 100 to 1000 nM.

For the compound `Nc1nccc2cc(CNC(=O)c3ccnc(Cc4ccc5ncc(Cl)cc5c4)c3)ccc12` [Example 31, N-((1-aminoisoquinolin-6-yl)methyl)-2-((3-chloroquinolin-6-yl)methyl)isonicotinamide], the IC50 at human Plasma Kallikrein is under 100 nM. In addition, on kallikrein, the EC50 was under 100 nM.

As for `Cc1ccc2cc(Cc3cc(C(=O)NCc4c(C)cc(N)nc4C)ccn3)ccc2n1` [Example 113, N-((6-amino-2,4-dimethylpyridin-3-yl)methyl)-2-((2-methylquinolin-6-yl)methyl)isonicotinamide], on human Plasma Kallikrein, the IC50 is under 100 nM. For the same compound, the EC50 on kallikrein is under 100 nM.

Regarding `NC(=O)c1cc(Cc2cc(C(=O)NCc3n[nH]c4ccc(Cl)cc34)ccn2)cc2cc(Cl)cnc12` [Example 60, 3-chloro-6-((4-(((5-chloro-1H-indazol-3-yl)methyl)carbamoyl)pyridin-2-yl)methyl)quinoline-8-carboxamide], the half-inhibitory concentration (IC50) on human Plasma Kallikrein is under 100 nM. Besides, the EC50 at kallikrein fell in the range of 100 to 1000 nM.

For `Cc1cnc2c(C(N)=O)cc(Cc3cc(C(=O)NCc4cnc5[nH]cc(Cl)c5c4)ccn3)cc2c1` [Example 80, 6-((4-(((3-chloro-1H-pyrrolo[2,3-b]pyridin-5-yl)methyl)carbamoyl)pyridin-2-yl)methyl)-3-methylquinoline-8-carboxamide], the concentration for half-maximal inhibition (IC50) on human Plasma Kallikrein is under 100 nM. The EC50 on kallikrein is under 100 nM.

For the compound `NC(=O)c1cc(Cc2cc(C(=O)NCc3cnc4[nH]cc(Cl)c4c3)ccn2)cc2cc(Cl)cnc12` [Example 61, 3-chloro-6-((4-(((3-chloro-1H-pyrrolo[2,3-b]pyridin-5-yl)methyl)carbamoyl)pyridin-2-yl)methyl)quinoline-8-carboxamide], the IC50 on human Plasma Kallikrein is under 100 nM. In addition, on kallikrein, the EC50 is 100 to 1000 nM.

As to `O=C(NCc1cnc2[nH]cc(Cl)c2c1)c1ccnc(Cc2ccc3ncc(Cl)cc3c2)c1` [Example 38, N-(3-Chloro-1H-pyrrolo[2,3-b]pyridin-5-ylmethyl)-2-(3-chloro-quinolin-6-ylmethyl)-isonicotinamide], the IC50 at human Plasma Kallikrein was under 100 nM. Further, the EC50 on kallikrein lay within 100 to 1000 nM.

With `Cc1cnc2c(C(N)=O)cc(Cc3cc(C(=O)NCc4ccc5c(N)nccc5c4)ccn3)cc2c1` [Example 79, 6-((4-(((1-aminoisoquinolin-6-yl)methyl)carbamoyl)pyridin-2-yl)methyl)-3-methylquinoline-8-carboxamide], the IC50 on human Plasma Kallikrein was under 100 nM. Further, the concentration for a half-maximal effect (EC50) on kallikrein is under 100 nM.

`Cc1ccc2ncc(Cc3cc(C(=O)NCc4ccc(N)nc4C)ccn3)cc2c1` [Example 117, N-((6-amino-2-methylpyridin-3-yl)methyl)-2-((6-methylquinolin-3-yl)methyl)isonicotinamide]: the IC50 at human Plasma Kallikrein was under 100 nM. The EC50 at kallikrein was in the range of 100 to 1000 nM.

With `O=C(NCc1ccc2[nH]cc(Cl)c2c1F)c1ccnc(Cc2ccc3ncc(Cl)cc3c2)c1` [Example 40, N-(3-Chloro-4-fluoro-1H-indol-5-ylmethyl)-2-(3-chloro-quinolin-6-ylmethyl)-isonicotinamide], the IC50 at human Plasma Kallikrein is under 100 nM. On kallikrein, the EC50 is 100 to 1000 nM.

Regarding `Cc1cnc2c(S(C)(=O)=O)cc(Cc3cc(C(=O)NCc4cnc5[nH]cc(Cl)c5c4)ccn3)cc2c1` [Example 19, N-((3-chloro-1H-pyrrolo[2,3-b]pyridin-5-yl)methyl)-2-((3-methyl-8-(methylsulfonyl)quinolin-6-yl)methyl)isonicotinamide], at human Plasma Kallikrein, the IC50 was under 100 nM. Moreover, the EC50 at kallikrein is under 100 nM.

Regarding `Cc1cnc2c(C(N)=O)cc(Cc3cc(C(=O)NCc4cc5cc[nH]c5cc4F)ccn3)cc2c1` [Example 83, 6-((4-(((6-fluoro-1H-indol-5-yl)methyl)carbamoyl)pyridin-2-yl)methyl)-3-methylquinoline-8-carboxamide], the concentration for half-maximal inhibition (IC50) at human Plasma Kallikrein was under 100 nM. In addition, the EC50 on kallikrein lay in the range of 100 to 1000 nM.

As to `Cc1cnc2c(S(C)(=O)=O)cc(Cc3cc(C(=O)NCc4cc5c(Cl)c[nH]c5cc4F)ccn3)cc2c1` [Example 17, N-((3-chloro-6-fluoro-1H-indol-5-yl)methyl)-2-((3-methyl-8-(methylsulfonyl)quinolin-6-yl)methyl)isonicotinamide], the concentration for half-maximal inhibition (IC50) at human Plasma Kallikrein is under 100 nM. In addition, the EC50 at kallikrein is under 100 nM.

With `Cc1cnc2c(S(C)(=O)=O)cc(Cc3cc(C(=O)NCc4ccc5c(N)nccc5c4)ccn3)cc2c1` [Example 16, N-((1-aminoisoquinolin-6-yl)methyl)-2-((3-methyl-8-(methylsulfonyl)quinolin-6-yl)methyl)isonicotinamide], at human Plasma Kallikrein, the IC50 was under 100 nM. Moreover, the EC50 on kallikrein was under 100 nM.

For the compound `NC(=O)c1cc(Cc2cc(C(=O)NCc3ccc4[nH]cc(Cl)c4c3F)ccn2)cc2cc(Cl)cnc12` [Example 65, 3-chloro-6-((4-(((3-chloro-4-fluoro-1H-indol-5-yl)methyl)carbamoyl)pyridin-2-yl)methyl)quinoline-8-carboxamide], on human Plasma Kallikrein, the IC50 is under 100 nM. Moreover, the EC50 on kallikrein was under 100 nM.

With `Cc1cc2cc(Cc3cc(C(=O)NCc4c(C)cc(N)nc4C)ccn3)ccc2cn1` [Example 145, N-((6-amino-2,4-dimethylpyridin-3-yl)methyl)-2-((3-methylisoquinolin-6-yl)methyl)isonicotinamide], the IC50 on human Plasma Kallikrein was under 100 nM. Moreover, the EC50 at kallikrein is under 100 nM.

On to `Cc1ccc2ncc(Cc3cc(C(=O)NCc4ccc5c(N)nccc5c4)ccn3)cc2c1` [Example 115, N-((1-aminoisoquinolin-6-yl)methyl)-2-((6-methylquinolin-3-yl)methyl)isonicotinamide], for which, on human Plasma Kallikrein, the IC50 was under 100 nM. Also, the EC50 at kallikrein was under 100 nM.

As to `Cc1cnc2c(S(C)(=O)=O)cc(Cc3cc(C(=O)NCc4c(C)cc(N)nc4C)ccn3)cc2c1` [Example 15, N-((6-amino-2,4-dimethylpyridin-3-yl)methyl)-2-((3-methyl-8-(methylsulfonyl)quinolin-6-yl)methyl)isonicotinamide], the IC50 at human Plasma Kallikrein is under 100 nM. The EC50 on kallikrein was under 100 nM.

On to `Cc1nc(N)ccc1CNC(=O)c1ccnc(Cc2cc(S(C)(=O)=O)c3ncc(Cl)cc3c2)c1` [Example 69, N-((6-amino-2-methylpyridin-3-yl)methyl)-2-((3-chloro-8-(methylsulfonyl)quinolin-6-yl)methyl)isonicotinamide], for which the IC50 at human Plasma Kallikrein is under 100 nM. At kallikrein, the 50% effective concentration (EC50) was under 100 nM.

As to `Cc1cnc2ccc(Cc3cc(C(=O)NCc4c(C)cc(N)nc4C)ccn3)cc2c1` [Example 144, N-((6-amino-2,4-dimethylpyridin-3-yl)methyl)-2-((3-methylquinolin-6-yl)methyl)isonicotinamide], the IC50 at human Plasma Kallikrein is under 100 nM. The EC50 on kallikrein is under 100 nM.

Take `Cc1cnc2c(C(=O)O)cc(Cc3cc(C(=O)NCc4c(C)cc(N)nc4C)ccn3)cc2c1` [Example 84, 6-((4-(((6-amino-2,4-dimethylpyridin-3-yl)methyl)carbamoyl)pyridin-2-yl)methyl)-3-methylquinoline-8-carboxylic acid]: the IC50 on human Plasma Kallikrein was under 100 nM. Also, the EC50 at kallikrein is under 100 nM.

For the compound `Nc1nccc2cc(CNC(=O)c3ccnc(Cc4cnc5ccc(F)cc5c4)c3)ccc12` [Example 118, N-((1-aminoisoquinolin-6-yl)methyl)-2-((6-fluoroquinolin-3-yl)methyl)isonicotinamide], the IC50 on human Plasma Kallikrein is under 100 nM. Moreover, at kallikrein, the EC50 was under 100 nM.

A word on the IC50: it is the midpoint of a concentration-inhibition curve. By EC50 is commonly meant the concentration that produces a half-maximal response.
